From patent publication US9980943B2, “Methods of treating muscular dystrophy” (BOARD OF REGENTS OF THE NEVADA SYSTEM OF HIGHER EDUCATION, …, priority 2013, dated 2018)

Key:
Type in all cases: cell-based, mouse
[1] = system: α7 integrin (LacZ reporter in α7βgal+/− myoblasts); assay: Myoblast α7+/LacZ integrin FDG assay (Burkin assay in myoblasts, 96-well); conditions: α7+/LacZ myoblasts, 96-well
[2] = system: α7 integrin (LacZ reporter in α7+/LacZ myotubes); assay: Myotube α7 integrin FDG assay (Burkin assay in myotubes, 96-well); conditions: myotubes
[3] = system: β-galactosidase in CMV-LacZ C2C12 myotubes; assay: CMV-LacZ secondary screen in C2C12 myotubes (β-Gal stabilizing assay); conditions: for CMV-LACZ in Myotubes (β-galactosidase activity relative to DMSO): CMV-LacZ C2C12 myotubes, 96-well format
Text: In order to determine compounds that acted to stabilize β-gal in myogenic cells, a CMV-LacZ C2C12 cell line was used in a secondary screen. The EGFP gene from the pEGFP (Clontech) vector was replaced by LACZ PCR product with digests of the vector/PCR product performed using EcoRI (NEB) and NotI (NEB) and ligated using T4 DNA Ligase (NEB) following standard procedures to produce the CMV-LACZ vector. The LACZ gene was generated by PCR from the pBK-RSV (Stratagene) vector using primers LACZ EcoRI F- and LACZ NotI R-. The CMV-LACZ vector was then digested with AfIII (NEB) to linearize the construct, which was then transfected in C2C12 myoblasts using Lipofectamine 2000 (Invitrogen) following the manufacturer's instructions. […] Clonal lines were selected and screened for βgal levels using the myoblast FDG assay.
The assays were used the original 96-well format and new dose-response curves for myoblasts (N=3-6 replicates for each data point), myotubes (N=3-6 replicates for data point), and CMV-LacZ secondary assay (N=2 replicates for each data point) using concentrations of 0.5 μM, 1 μM, 5 μM, 10 μM, 20 μM, and 40 μM (Tables 9-16).

[4] = 5 uM, C2C12 CMV-LacZ myotubes, fold relative to DMSO
[5] = 10 uM, C2C12 CMV-LacZ myotubes, fold relative to DMSO
[6] = 20 uM, C2C12 CMV-LacZ myotubes, fold relative to DMSO
[7] = 40 uM, C2C12 CMV-LacZ myotubes, fold relative to DMSO

| SMILES | Burkin Assay in Myoblasts, value relative to DMSO ([1]; 0.5 uM) | Burkin Assay in Myoblasts, value relative to DMSO ([1]; 1 uM) | Burkin Assay in Myoblasts, value relative to DMSO ([1]; 5 uM) | Burkin Assay in Myoblasts, value relative to DMSO ([1]; 10 uM) | Burkin Assay in Myoblasts, value relative to DMSO ([1]; 20 uM) | Burkin Assay in Myoblasts, value relative to DMSO ([1]; 40 uM) | Burkin Assay in Myotubes (signal relative to DMSO) ([2]; 0.5 uM) | Burkin Assay in Myotubes (signal relative to DMSO) ([2]; 1 uM) | Burkin Assay in Myotubes (signal relative to DMSO) ([2]; 5 uM) | Burkin Assay in Myotubes (signal relative to DMSO) ([2]; 10 uM) | Burkin Assay in Myotubes (signal relative to DMSO) ([2]; 20 uM) | Burkin Assay in Myotubes (signal relative to DMSO) ([2]; 40 uM) | CMV-LACZ in Myotubes, signal relative to DMSO [3, 4] | CMV-LACZ in Myotubes, signal relative to DMSO [3, 5] | CMV-LACZ in Myotubes, signal relative to DMSO [3, 6] | CMV-LACZ in Myotubes, signal relative to DMSO [3, 7] | other results |
| --- | --- | --- | --- | --- | --- | --- | --- | --- | --- | --- | --- | --- | --- | --- | --- | --- | --- |
| COc1cc(NC(=O)C2C3C=CC(C3)C2C(=O)O)ccc1NC(=O)c1ccccc1 (stereo not shown) [MLS001125488-01] |  |  |  |  |  |  |  |  |  |  |  |  |  |  |  |  | fold induction at 0.5 µM ([1]; Mus musculus, Myoblast, 48 h, 0.5 uM, read-out: Burkin Assay in Myoblasts, signal relative to DMSO): 0.933; fold induction at 1 µM ([1]; Mus musculus, Myoblast, 48 h, 1 uM, read-out: Burkin Assay in Myoblasts, signal relative to DMSO): 0.976; fold induction at 5 µM ([1]; Mus musculus, Myoblast, 48 h, 5 uM, read-out: Burkin Assay in Myoblasts, signal relative to DMSO): 0.99; fold induction at 10 µM ([1]; Mus musculus, Myoblast, 48 h, 10 uM, read-out: Burkin Assay in Myoblasts, signal relative to DMSO): 0.879; fold induction at 20 µM ([1]; Mus musculus, Myoblast, 48 h, 20 uM, read-out: Burkin Assay in Myoblasts, signal relative to DMSO): 0.907; fold induction at 40 µM ([1]; Mus musculus, Myoblast, 48 h, 40 uM, read-out: Burkin Assay in Myoblasts, signal relative to DMSO): 0.923; fold induction at 0.5 µM ([2]; Mus musculus, Myotube, 0.5 uM, read-out: Burkin Assay in Myotubes, α7 integrin LacZ reporter signal relative to DMSO): 1.03; fold induction at 1 µM ([2]; Mus musculus, Myotube, 1 uM, read-out: Burkin Assay in Myotubes, α7 integrin LacZ reporter signal relative to DMSO): 1.15; fold induction at 5 µM ([2]; Mus musculus, Myotube, 5 uM, read-out: Burkin Assay in Myotubes, α7 integrin LacZ reporter signal relative to DMSO): 1.12; fold induction at 10 µM ([2]; Mus musculus, Myotube, 10 uM, read-out: Burkin Assay in Myotubes, α7 integrin LacZ reporter signal relative to DMSO): 1.32; fold induction at 20 µM ([2]; Mus musculus, Myotube, 20 uM, read-out: Burkin Assay in Myotubes, α7 integrin LacZ reporter signal relative to DMSO): 1.14; fold induction at 40 µM ([2]; Mus musculus, Myotube, 40 uM, read-out: Burkin Assay in Myotubes, α7 integrin LacZ reporter signal relative to DMSO): 1.22; fold induction at 5 µM ([3]; Mus musculus, C2C12, read-out: CMV-LACZ in Myotubes, signal relative to DMSO, 5 uM, C2C12 CMV-LacZ myotubes, fold relative to DMSO): 0.747; fold induction at 10 µM ([3]; Mus musculus, C2C12, read-out: CMV-LACZ in Myotubes, signal relative to DMSO, 10 uM, C2C12 CMV-LacZ myotubes, fold relative to DMSO): 0.968; fold induction at 20 µM ([3]; Mus musculus, C2C12, read-out: CMV-LACZ in Myotubes, signal relative to DMSO, 20 uM, C2C12 CMV-LacZ myotubes, fold relative to DMSO): 1.18; fold induction at 40 µM ([3]; Mus musculus, C2C12, read-out: CMV-LACZ in Myotubes, signal relative to DMSO, 40 uM, C2C12 CMV-LacZ myotubes, fold relative to DMSO): 0.872 |
| COc1ccc(C(=O)N/C(=C/c2cccnc2)C(=O)N2CCN(C)CC2)cc1OC [MLS001140657-01] | 0.9918 | 0.962 | 0.9528 | 0.8768 | 0.8568 | 0.7978 | 1.034 | 0.9506 | 1.083 | 0.9981 | 0.9948 | 0.9708 |  |  |  |  | CMV-LACZ in Myotubes (β-galactosidase activity relative to DMSO) ([3]; 5 uM): 1.053; CMV-LACZ in Myotubes (β-galactosidase activity relative to DMSO) ([3]; 10 uM): 1.046; CMV-LACZ in Myotubes (β-galactosidase activity relative to DMSO) ([3]; 20 uM): 1.05; CMV-LACZ in Myotubes (β-galactosidase activity relative to DMSO) ([3]; 40 uM): 1.075 |
| Cc1ccc(NC(=O)NCc2nc3ccccc3n2C)cc1 [MLS001175592-01] | 0.8989 | 0.8859 | 0.9323 | 0.9006 | 0.9731 | 0.9405 | 0.9685 | 0.986 | 0.6911 | 1.034 | 0.6445 | 1.047 | 0.947 | 1.031 | 0.9649 | 1.018 |  |
| O=[N+]([O-])c1cccc(S(=O)(=O)N2CCN(S(=O)(=O)N3CCOCC3)CC2)c1 [MLS000912614-01] | 0.9551 | 1.088 | 0.9534 | 0.94 | 0.7382 | 0.7798 | 1.042 | 1.024 | 1.103 | 1.055 | 0.775 | 0.7855 | 1.018 | 1.166 | 0.97 | 1.012 |  |
| COc1cc(C(C(=O)NC2CCCCC2)N(C(=O)c2snc(C(N)=O)c2N)c2ccc(C)cc2)ccc1O (stereo not shown) [MLS001218427-01] |  |  |  |  |  |  |  |  |  |  |  |  | 1.209 | 15.1793 | 34.571 | 0.6965 | Burkin Assay in Myoblasts, signal relative to DMSO ([1]; 0.5 uM): 0.9466; Burkin Assay in Myoblasts, signal relative to DMSO ([1]; 1 uM): 0.9485; Burkin Assay in Myoblasts, signal relative to DMSO ([1]; 5 uM): 0.8334; Burkin Assay in Myoblasts, signal relative to DMSO ([1]; 10 uM): 0.7663; Burkin Assay in Myoblasts, signal relative to DMSO ([1]; 20 uM): 0.2232; Burkin Assay in Myoblasts, signal relative to DMSO ([1]; 40 uM): 0.3039; Burkin Assay in Myotubes, α7 integrin LacZ reporter signal relative to DMSO ([2]; 0.5 uM): 0.8052; Burkin Assay in Myotubes, α7 integrin LacZ reporter signal relative to DMSO ([2]; 1 uM): 0.7974; Burkin Assay in Myotubes, α7 integrin LacZ reporter signal relative to DMSO ([2]; 5 uM): 0.8464; Burkin Assay in Myotubes, α7 integrin LacZ reporter signal relative to DMSO ([2]; 10 uM): 0.6054; Burkin Assay in Myotubes, α7 integrin LacZ reporter signal relative to DMSO ([2]; 20 uM): 0.3311; Burkin Assay in Myotubes, α7 integrin LacZ reporter signal relative to DMSO ([2]; 40 uM): 0.429 |
| CC(C)N(CCO)C(=O)CCc1nnc(CCCc2ccccc2)o1 [MLS000733703-01] | 0.988 | 0.9592 | 0.8919 | 0.8734 | 0.8635 | 0.8463 | 1.063 | 1.128 | 0.8779 | 1.147 | 0.9957 | 0.894 | 1.1188 | 0.8654 | 0.9583 | 0.7965 |  |
| CC1CCCCN1c1ncnc(N)c1[N+](=O)[O-] (stereo not shown) [MLS000683234-01] |  |  |  |  |  |  |  |  |  |  |  |  | 0.8204 | 0.8111 | 0.6952 | 0.93 | Burkin Assay in Myoblasts, signal relative to DMSO ([1]; 0.5 uM): 1.187; Burkin Assay in Myoblasts, signal relative to DMSO ([1]; 1 uM): 0.8341; Burkin Assay in Myoblasts, signal relative to DMSO ([1]; 5 uM): 1.134; Burkin Assay in Myoblasts, signal relative to DMSO ([1]; 10 uM): 1.152; Burkin Assay in Myoblasts, signal relative to DMSO ([1]; 20 uM): 1.067; Burkin Assay in Myoblasts, signal relative to DMSO ([1]; 40 uM): 1.21; Burkin Assay in Myotubes, α7 integrin LacZ reporter signal relative to DMSO ([2]; 0.5 uM): 0.9165; Burkin Assay in Myotubes, α7 integrin LacZ reporter signal relative to DMSO ([2]; 1 uM): 1.053; Burkin Assay in Myotubes, α7 integrin LacZ reporter signal relative to DMSO ([2]; 5 uM): 1.091; Burkin Assay in Myotubes, α7 integrin LacZ reporter signal relative to DMSO ([2]; 10 uM): 1.273; Burkin Assay in Myotubes, α7 integrin LacZ reporter signal relative to DMSO ([2]; 20 uM): 1.414; Burkin Assay in Myotubes, α7 integrin LacZ reporter signal relative to DMSO ([2]; 40 uM): 1.631 |
